Results published in patent US7371529B2, “Methods and compositions for modulating gluconeogenesis using PGC-1” (Dana-Farber Cancer Institute, Inc., priority 2001, dated 2008).

Key:
[1] = tested on: G6 Pase, PEPCK and PGC-1 mRNA; test: Insulin effect on mRNA levels and PGC-1 function in cultured liver cells; assay type: cell-based; settings: for PGC-1 induced expression of PEPCK and glucose-6-phosphatase: cultured liver cells
Description: This example describes experiments designed to determine whether insulin acts directly to suppress PGC-1 expression or function. The levels of PGC-1 mRNA were first examined in cells treated with various combinations of insulin, forskolin, and dexamethasone.
However, PGC-1 function is negatively regulated by insulin in cultured liver cells. […] FKHR is regulated directly by Akt via phosphorylation. Stimulation by insulin results in activation of Akt, which phosphorylates FKHR, which in turn inactivates FKHR by causing it to exit the nucleus. Insulin treatment downregulates the ability of PGC-1 to induce the gluconeogenic genes PEPCK and glucose-6-phosphatase. PGC-1 induced expression of the genes was […] when a constitutively active FKHR was used, while a dominant-negative FKHR also downregulates the ability of PGC-1 to induce these genes, even in the absence of insulin.

PGC-1 = test: STZ-diabetic mouse, liver PGC-1 (Northern); assay type: in vivo; settings: STZ-diabetic mice, after 10 days
Experimental: For the feeding experiments, male mice were either allowed free access to food or subjected to a 24 hour fast and sacrificed at the end of 24 hours. A third group was fasted for 24 hours and then fed ad libitum for another 24 hours prior to sacrifice. For the STZ-diabetic mouse experiments, 6-8 week old male mice (n=3 per group) were injected intraperitoneally for three consecutive days with either sodium citrate solution or streptozotocin ([…] of body weight per injection). Animals were sacrificed after 10 days, at which point the mean blood glucose in the STZ-treated group rose to over 400 mg/dl. For the LIRKO mouse experiments, two-month-old female control (lox/lox) or LIRKO mice were divided into three groups (n=2 each) and subjected to the standard feeding protocol as described above.
Total RNA was prepared from cells or tissues with Trizol (Life Technologies) according to the manufacturer's instructions. Ten to twenty micrograms of total RNA was fractionated in a 1% agarose-formaldehyde gel, transferred onto nylon, and hybridized with cDNA probes labeled by random-primed labeling (Boehringer Mannheim) with [-^32P]-dCTP, using methods known in the art. […]

PEPCK promoter = test: PEPCK promoter-luciferase reporter assay in Fao hepatoma cells; assay type: cell-based, rat
Experimental: (§1) NIH 3T3 or Fao hepatoma cells were cultured in 10% FBS-RPMI and transfected at 70-90% confluency using Fugene 6 (Roche). The ratio of DNA:Fugene was 1:2. Culture medium was changed after 24 hours. Cells were collected 48 hours after transfection and β-galactosidase and luciferase assays were performed. Transfections were performed in duplicate and repeated at least twice.
The ability of PGC-1 to activate the PEPCK-promoter (using a luciferase reporter gene) in hepatoma cells was examined. Fao rat hepatoma cells were maintained in 10% FBS-RPMI and transfected in a 6 well format with 200 ng of pPL32-PEPCK-luciferase (or pGL3-PEPCK-luciferase), 100 ng CMV β-galactosidase, and […] of pCMV or pCMV-PGC-1 per well. Cells were harvested for luciferase assays 48 hours after transfection, and the readings were normalized by β-galactosidase activity. […] In the transient transfection assays described above, PGC-1 activated the wild-type PEPCK promoter-reporter gene by approximately 10-fold (FIG. 4).
To identify the regulatory elements mediating the effect of PGC-1 on this promoter, mutant constructs were utilized in which various regulatory elements within the PEPCK-luciferase reporter construct were substituted by a yeast Gal4 DNA binding element (FIG. 1; Wang, J. C. et al. (1999) Mol. Endocrinol. 13:604-618). […] However, mutation of the AF1 or AF3 site (or both) each reduced the PGC-1-mediated activation by 50-60%; a combination of the AF1-to-Gal4 substitution and additional block mutations in the GR binding sites (GR1, GR2) led to a small but significant further decrease. […] A replacement of the P3 (I) site, an element shared by the cAMP and thyroid hormone response units, by the Gal4 DNA binding element caused a modest (25%) reduction in the PGC-1 mediated activation of the PEPCK reporter. […] It also appears that there are other unidentified regulatory elements on the PEPCK promoter through which PGC-1 can produce a partial activation.
The AF1 and AF3 sites are both DR-1 type sequences that can bind several nuclear receptors. […] The AF3 element has also been associated with COUP-TF binding (Scott et al (1996) supra). […] Vectors encoding the Gal4 DBD, Gal4 DBD-HNF-4α, or Gal4 DBD-COUP-TF fusion proteins (500 ng per well) were cotransfected with the mutant receptors, containing a substitution of a particular element within the Gal4 DBD, to determine whether they can rescue the PGC-1 activity. […] In contrast, cotransfection of a Gal4-COUP-TF construct produced only a partial restoration (approximately 20-30% of that achieved by HNF-4α), and cotransfection of the Gal4 DBD alone had virtually no effect on the PGC-1 mediated activation. Very similar results were obtained at the AF3 site.
The role of the glucocorticoid response elements in the PEPCK promoter was also examined. […] Fao hepatoma cells were transfected as described above for FIG. 4. Dexamethasone (dex, 1 μM final concentration) was added for the final 24 hours.

HNF-4α = target: T1, HNF-4α (Homo sapiens, UniProt P41235); test: Multimerized AF1 reporter assay in NIH 3T3 fibroblasts, HNF-4α; assay type: cell-based; settings: NIH 3T3, no hormone or ligand added
T1 construct: made in house; host or cells: TNT reticulocyte lysate in vitro transcription/translation (Promega)
T1 sequence (P41235 1-474): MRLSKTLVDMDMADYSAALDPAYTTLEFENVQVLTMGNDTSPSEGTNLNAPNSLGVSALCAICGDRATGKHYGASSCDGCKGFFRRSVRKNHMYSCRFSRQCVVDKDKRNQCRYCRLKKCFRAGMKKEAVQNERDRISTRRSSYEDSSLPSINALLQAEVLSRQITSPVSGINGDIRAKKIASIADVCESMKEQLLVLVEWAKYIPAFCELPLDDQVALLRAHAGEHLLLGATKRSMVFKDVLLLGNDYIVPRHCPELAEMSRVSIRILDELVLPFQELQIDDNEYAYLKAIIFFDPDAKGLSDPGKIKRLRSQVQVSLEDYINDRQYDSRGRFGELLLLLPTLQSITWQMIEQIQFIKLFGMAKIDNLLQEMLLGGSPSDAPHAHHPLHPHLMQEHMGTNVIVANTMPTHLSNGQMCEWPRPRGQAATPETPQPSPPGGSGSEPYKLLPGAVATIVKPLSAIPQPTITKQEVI
Experimental: as §1
(§2) To examine these functional interactions at the AF1 site with intact transcription factors, reporter gene assays were performed using PGC-1, wild-type HNF-4α and COUP-TF proteins, and a multimerized AF1 response element. To avoid interference with endogenous liver factors, these experiments were done in NIH 3T3 fibroblasts. Transfections were done as described above for FIG. 4. Neither HNF-4α, COUP-TF, nor PGC-1 activates these target sequences alone (FIG. 6).

COUP-TF = test: Multimerized AF1 reporter assay in NIH 3T3 fibroblasts, COUP-TF; assay type: cell-based
Experimental: as §1, §2

G6 Pase promoter = test: G6 Pase promoter-luciferase reporter in SV40 transformed hepatocytes; assay type: cell-based
Experimental: PGC-1 and/or HNF-4α were cotransfected into SV40 transformed hepatocytes, and the ability to coactivate the glucose-6-phosphatase (G6 Pase) promoter was determined using a luciferase reporter gene. Experiments were performed in duplicate.

[2] = tested on: gluconeogenic, ketogenic, and beta-oxidation genes; test: Gene induction in control (floxed) or HNF-4α null primary hepatocytes; assay type: cell-based; settings: presence and absence of HNF-4α
Description: The ability of PGC-1 to induce mRNA expression of gluconeogenic, ketogenic, and beta-oxidation genes was examined in cells lacking HNF-4α. Control (floxed) or HNF-4α null cells (primary hepatocytes) were infected with adenoviruses containing GFP (control) or PGC-1 and were either untreated, serum-starved, or treated with dexamethasone and cAMP.

FKHR [3] = test: 3×IRS promoter-luciferase reporter, FKHR coactivation; assay type: cell-based; settings: PGC-1 cotransfected with wild-type or mutant FKHR
FKHR [4] = test: G6 Pase promoter-reporter, FKHR coactivation; assay type: cell-based; settings: PGC-1 cotransfected with FKHR
[5] = tested on: PGC-1 protein, glucose-6-phosphatase and PEPCK mRNA; test: Adenovirus infusion in Wistar rats, liver immunoblot and Northern; assay type: in vivo; settings: rat liver, adenoviral PGC-1
Experimental: Male Wistar rats (Charles River) were fed with standard laboratory food and weighed 300-350 g at the time of the studies. Animals were anesthetized by injection of 0.1 ml per 100 g body mass of a solution containing 25 mg/ml of xylazine (Phoenix Scientific) and 0.5 mg/ml of acepromazine (Fermenta Animal Health). CMV-GFP and CMV-PGC-1 adenoviruses were purified by CsCl gradient centrifugation as described in Becker, T. et al. (1994) Methods Cell Biol. 43:161-189. Pure recombinant virus (1×10^12 plaque forming units), suspended in 0.5 ml of phosphate buffered saline (PBS), was injected into anesthetized rats through the tail vein. Animals were allowed to recover and were fed standard food ad libitum. Five days after adenovirus infusion, tail vein blood was collected at 14:00 for measurement of glucose concentration, using a β-glucose analyzer (HemoCue AB). After the measurement, animals were sacrificed. Blood samples were collected from the heart, centrifuged at 1300 g for 15 minutes at 4° C. in 15 ml centrifuge tubes containing 50 μl of 0.4 M EDTA, and stored at −20° C. before measurement of insulin concentrations with a rat insulin specific radioimmunoassay kit (Linco Research). Liver samples were collected, snap frozen in liquid nitrogen, and stored at −80° C. Aliquots of frozen liver samples were processed for northern blot or immunoblot analysis. […]

## insulin
[1]
  G6 Pase mRNA levels: downregulated
  PGC-1 mRNA levels: do not change
  PGC-1 induced expression of PEPCK and glucose-6-phosphatase: downregulates

## CN(N=O)C(=O)N[C@H]1C(O)O[C@H](CO)[C@@H](O)[C@@H]1O (mixture of isomers) [streptozotocin]
PGC-1
  PGC-1 in liver (Northern): consistently increased

## PGC-1: coactivator of nuclear receptors, expressed from transfected pCMV-PGC-1 or from adenovirus
PEPCK promoter; Fao cells, 1 mg pCMV-PGC-1 per well, 48 hours
  activation of wild-type PEPCK promoter-reporter gene: approximately 10 fold
PEPCK promoter; P3 (I) site replaced by Gal4 DNA binding element
  reduction in PGC-1 mediated activation of the PEPCK reporter: 25%
PEPCK promoter; dexamethasone 1 μM for the final 24 hours
  coactivation of PEPCK promoter through the glucocorticoid receptor: in a ligand dependant manner
PEPCK promoter; mutation in the AF2 or the CRE site
  magnitude of PGC-1 activation: did not produce an appreciable effect
PEPCK promoter; mutation of the AF1 or AF3 site (or both)
  reduction of PGC-1-mediated activation: 50-60%
HNF-4α
  coactivation of HNF-4α on multimerized AF1 response element: dramatically coactivates
COUP-TF
  coactivation of COUP-TF on multimerized AF1 response element: no ability to coactivate
G6 Pase promoter; cotransfected with HNF-4α
  activation of G6 Pase promoter-luciferase reporter: strong coactivation
G6 Pase promoter; transfected alone
  activation of G6 Pase promoter-luciferase reporter: no activation
[2]
  induction of gluconeogenic genes glucose-6-phosphatase and PEPCK: in the presence, but not the absence, of HNF-4α
FKHR [3]
  activation of 3×IRS promoter-luciferase reporter: can coactivate FKHR
FKHR [4]
  coactivation on wild type G6 Pase promoter-reporter: coactivated FKHR
[5]
  liver PEPCK mRNA (Northern): increased expression
  liver mRNA for glucose-6-phosphatase (Northern): dramatic and uniform elevation

B1: constitutively active FKHR: FKHR with three phosphorylatable amino acids changed to alanine (protein, UniProt Q12778 1-655, looked up, variant T24A S256A S319A)
Forkhead box protein O1: MAEAPQVVEIDPDFEPLPRPRSCAWPLPRPEFSQSNSATSSPAPSGSAAANPDAAAGLPSASAAAVSADFMSNLSLLEESEDFPQAPGSVAAAVAAAAAAAATGGLCGDFQGPEAGCLHPAPPQPPPPGPLSQHPPVPPAAAGPLAGQPRKSSSSRRNAWGNLSYADLITKAIESSAEKRLTLSQIYEWMVKSVPYFKDKGDSNSSAGWKNSIRHNLSLHSKFIRVQNEGTGKSSWWMLNPEGGKSGKSPRRRAAAMDNNSKFAKSRSRAAKKKASLQSGQEGAGDSPGSQFSKWPASPGSHSNDDFDNWSTFRPRTSANASTISGRLSPIMTEQDDLGEGDVHSMVYPPSAAKMASTLPSLSEISNPENMENLLDNLNLLSSPTSLTVSTQSSPGTMMQQTPCYSFAPPNTSLNSPSPNYQKYTYGQSSMSPLPQMPIQTLQDNKSSYGGMSQYNCAPGLLKELLTSDSPPHNDIMTPVDPGVAQPNSRVLGQNVMMGPNSVMSTYGSQASHNKMMNPSSHTHPGHAQQTSAVNGRPLPHTVSTMPHTSGMNRLTQVKTPVQVPLPHPMQMSALGGYSSVSSCNGYGRMGLLHQEKLPSDLDGMFIERLDCDMESIIRNDLMDGDTLDFNFDNVLPNQSFPHSVKTTTHSWVSG
[1]
  PGC-1 induced expression of PEPCK and glucose-6-phosphatase: unchanged
FKHR [3]
  activation of 3×IRS promoter-luciferase reporter: increased activation
FKHR [4]
  coactivation on wild type G6 Pase promoter-reporter: further increased
